Test results published in patent US10647673B2, “Acetophenone compound, preparation method thereof, and application thereof in fatty liver prevention and treatment” (Nanjing Bioenergy Medicine Science & Technology Co., Ltd., priority 2017, dated 2020).

Experiments:
Type in all cases: in vivo
[1] = test system: nutritive obesity C57 mice; test: Weight loss experiment in nutritive obesity C57 mice; design: key to body weight of mice: body weight in g; conditions: high-fat diet, orlistat 40 mg/kg, Compounds 13 and 14 80 mg/kg intragastric, x ± s, n = 6, in g (unit assumed)
Excerpt: C57 mice, male, 18-20 g of body weight. The mice were randomly divided into Control group, Model group, Orlistat group, Compound 13 group and Compound 14 group, with 6 mice in each group.
(§1) appropriate amounts of orlistat, Compound 13 and Compound 14 were weighed respectively, added with 0.5% CMC-Na and grinded to dissolve.
The mice in Control group were fed with normal diet, and the other mice were fed with high-fat diet. All of the mice had free access to water. After one week of feeding, the pharmaceuticals were intragastrically administrated. The dose was 40 mg/kg body weight for orlistat, 80 mg/kg for Compounds 13 and 14. The body weight of the mice was weighed every week during the experiment which lasted for 28 days.

ob/ob mice = test: Weight loss experiment in ob/ob mice; conditions: orlistat 40 mg/kg, other pharmaceuticals 80 mg/kg intragastric, x ± s, n = 6, in g (unit assumed)
Excerpt: […] ob/ob mice, male, 18-20 g of body weight, fed adaptively for one week before use. The mice were randomly divided into Control group, Model group, Orlistat group, Compound 13 group and Compound 14 group, with 6 mice in each group.
as §1
After feeding for one week, the mice were intragastrically administrated with the pharmaceuticals except the mice of Control group. The dose was 40 mg/kg body weight for orlistat, 80 mg/kg for the other pharmaceuticals. The body weight of the mice was weighed every week during the experiment which lasted for 28 days.

[2] = test system: Fatty Liver Diseases of SD Rats; test: Blood serum lipids in SD rats given lipid emulsion (fatty liver model); design: unit not given here; conditions: blood serum after 14 days of continuous administration; compounds 80 mg/kg, Obeticholic Acid 10 mg/kg, intragastric; lipid emulsion continued
Procedure: (§2) 500 g of lard oil was taken, placed in a container, and heated to melt. When the temperature rose to 100° C., it was added with 200 g of cholesterol to dissolve completely, and then further added with 20 g of propylthiouracil. The resulted mixture was stirred well, and added with 500 ml of Tween 80 after dissolution, resulting in an oil phase. At the same time, 600 mL of distilled water and 400 mL of 1,2-propanediol were taken and heated to 60° C. in a water bath, then were added with 40 g of sodium deoxycholate. The resulted mixture was stirred well until realizing complete dissolution, so as to give an aqueous phase. The aqueous phase was added into the oil phase and mixed well to give a lipid emulsion. The lipid emulsion was heated in a water bath of 37° C. before intragastric administration to animals.
(§3) An appropriate amount of pharmaceutical was weighed, added with 0.5% CMC-Na, and mixed homogeneously by grinding. There are groups for Compound 01 (80 mg/kg), Compound 02 (80 mg/kg), Compound 03 (80 mg/kg), Compound 04 (80 mg/kg), Compound 05 (80 mg/kg), Compound 06 (80 mg)/kg), Compound 07 (80 mg/kg), Compound 08 (80 mg/kg), Compound 09 (80 mg/kg), Compound 10 (80 mg/kg), Compound 11 (80 mg/kg), Compound 12 (80 mg/kg), Compound 13 (80 mg/kg), Compound 14 (80 mg/kg), Compound 15 (80 mg/kg), Compound 16 (80 mg/kg), Compound 17 (80 mg/kg), Compound 18 (80 mg/kg), Compound 19 (80 mg/kg), Compound 20 (80 mg/kg), Compound 21 (80 mg/kg), and Compound 22 (80 mg/kg).
(§4) Male SD rats weighing 180-200 g were fed adaptively for 7 days. Based on body weight, 10 animals were used as control and the remaining animals were intragastrically administered with the lipid emulsion every day, 1 ml/100 g body weight for 14 days. After fasting for 12 hours, 1 mL of blood was collected from the orbits of the animals, and was determined by Hitachi Automatic Biochemical Analyzer 7080 for serum cholesterol (CHO), triglyceride (TG), low density lipoprotein (LDL-C) and high density lipoprotein (HDL-C).
(§5) The modeled rats were continued with the intragastric administration of the lipid emulsion. At the same time, the pharmaceutical-administered groups were administrated with a corresponding dose of pharmaceuticals, while the Model group was administrated with an equal volume of solvent. The pharmaceutical-administered groups were administrated with the lipid emulsion in the morning, and with the pharmaceuticals in the afternoon. The animals were measured for the body weight once a week, and were observed. After 14 days of continuous administration, 1 mL of blood was collected from the orbits, and was determined for the contents of triglyceride, cholesterol, low density lipoprotein and high density lipoprotein in blood serum.

[3] = test system: Fatty Liver Diseases of SD Rats; test: Liver functions of lipid-emulsion SD rats after administration for 4 weeks; design: unit not given here; conditions: compounds 80 mg/kg, Obeticholic Acid 10 mg/kg
[4] = test system: fatty liver of the SD rats; test: Pathological sections and grading of fatty liver of SD rats; conditions: compounds 80 mg/kg, Sim 10 mg/kg, OCA 10 mg/kg
Procedure: as §2, §3, §4, §5

SMILES | CHO (serum cholesterol) [2] | HDL-C (high density lipoprotein) [2] | LDL-C (low density lipoprotein) [2] | TG (triglyceride) [2] | ALP [3] | ALT [3] | AST [3] | TBIL [3] | Pathological grading: Steatotic hepatocytes ([4]; animal 1) | Pathological grading: Steatotic hepatocytes ([4]; animal 3) | Pathological grading: Steatotic hepatocytes ([4]; animal 4) | Pathological grading: Steatotic hepatocytes ([4]; animal 2) | Pathological grading: Steatotic hepatocytes ([4]; animal 5) | also measured
CCCCCCCCCCC[C@@H](C[C@@H]1OC(=O)[C@H]1CCCCCC)OC(=O)[C@H](CC(C)C)NC=O [Orlistat, reference compound] |  |  |  |  |  |  |  |  |  |  |  |  |  | body weight of mice ([1]; Experiment Day 0): 18.28 ± 0.65; body weight of mice ([1]; Experiment Day 7): 20.29 ± 0.63; body weight of mice ([1]; Experiment Day 14): 21.39 ± 0.70; body weight of mice ([1]; Experiment Day 21): 22.51 ± 0.73; body weight of mice ([1]; Experiment Day 28): 24.47 ± 0.79; body weight of ob/ob mice (ob/ob mice; Experiment Day 0): 20.53 ± 0.50; body weight of ob/ob mice (ob/ob mice; Experiment Day 7): 22.82 ± 1.79; body weight of ob/ob mice (ob/ob mice; Experiment Day 14): 23.98 ± 1.85; body weight of ob/ob mice (ob/ob mice; Experiment Day 21): 26.86 ± 1.99; body weight of ob/ob mice (ob/ob mice; Experiment Day 28): 31.23 ± 2.31
Cc1ccc(C)c(OCCCC(C)(C)C(=O)Nc2ccc(C(=O)CNC(=O)c3cccnc3)cc2)c1 [Compound 12] | 4.03 ± 0.47 | 1.92 ± 0.11 | 2.16 ± 0.05 | 0.33 ± 0.05 | 994.50 ± 150.68 | 54.00 ± 5.72 | 137.75 ± 31.74 | 3.25 ± 2.11 | 0 | 0 | 0 |  |  | Pathological grading: Infiltration of inflammatory cells ([4]; animal 1): 0; Pathological grading: Infiltration of inflammatory cells ([4]; animal 3): 0; Pathological grading: Infiltration of inflammatory cells ([4]; animal 5): 0
Cc1ccc(C)c(OCCCC(C)(C)C(=O)NCC(=O)c2ccc(O)c(O)c2)c1 [Compound 21] | 4.37 ± 0.62 | 1.99 ± 0.44 | 2.09 ± 0.68 | 0.80 ± 0.13 | 1074.00 ± 181.32 | 65.6 ± 27.20 | 184.40 ± 18.68 | 3.23 ± 1.35 | + (25-45% of hepatocytes undergoing steatosis) | + (25-45% of hepatocytes undergoing steatosis) | + (25-45% of hepatocytes undergoing steatosis) | 0 | + (25-45% of hepatocytes undergoing steatosis) | Pathological grading: Infiltration of inflammatory cells ([4]; animal 4): 0
Cc1ccc(C)c(OCCCC(C)(C)C(=O)NCC(=O)c2ccc(OC(=O)c3cccnc3)c(O)c2)c1 [Compound 22] | 4.36 ± 1.08 | 1.47 ± 0.51 | 2.87 ± 1.25 | 0.57 ± 0.27 | 874.33 ± 251.66 | 58.00 ± 2.55 | 180.60 ± 27.19 | 2.97 ± 1.53 | + (25-45% of hepatocytes undergoing steatosis) | ++ (45-65% of hepatocytes undergoing steatosis) | + (25-45% of hepatocytes undergoing steatosis) | + (25-45% of hepatocytes undergoing steatosis) | + (25-45% of hepatocytes undergoing steatosis) | 
CC(=O)c1ccc(NC(=O)C(C)(C)CCCOc2cc(C)ccc2C)cc1 [Compound 02] | 4.29 ± 0.65 | 1.74 ± 0.29 | 2.18 ± 0.71 | 0.51 ± 0.19 | 1001.52 ± 273.34 | 62.52 ± 13.24 | 187.00 ± 36.44 | 1.98 ± 0.81 | + (25-45% of hepatocytes undergoing steatosis) | ++ (45-65% of hepatocytes undergoing steatosis) | + (25-45% of hepatocytes undergoing steatosis) | + (25-45% of hepatocytes undergoing steatosis) | ++ (45-65% of hepatocytes undergoing steatosis) | 
CC[C@H]1[C@@H](O)[C@@H]2[C@H](CC[C@]3(C)[C@@H]([C@H](C)CCC(=O)O)CC[C@@H]23)[C@@]2(C)CC[C@@H](O)C[C@@H]12 [Obeticholic Acid, Obeticholic acid, reference compound] | 4.74 ± 0.34 | 1.68 ± 0.22 | 2.85 ± 1.00 | 0.52 ± 0.06 | 999.60 ± 354.29 | 136.40 ± 62.68 | 248.20 ± 156.61 | 4.06 ± 1.40 | ++ (45-65% of hepatocytes undergoing steatosis) | ++ (45-65% of hepatocytes undergoing steatosis) | +++ (65-85% or more of hepatocytes undergoing steatosis) | ++ (45-65% of hepatocytes undergoing steatosis) | ++ (45-65% of hepatocytes undergoing steatosis) | 
